Structures are written as SMILES. Values after ≈ are worked out from the molar mass of the structure shown. Active and inactive are the calls of the source. No cut-off for these calls is given here.

This passage reports MIC, Activity and IC50 results from ChEMBL document CHEMBL5584300, “Bioinformatic Approaches Identify Hybrid Antibiotics against Tuberculosis via d-Amino Acid-Activating Adenylation Domains from Cordyceps militaris” (J Nat Prod, 2024).

The subject of data set [1] is Mycobacterium tuberculosis. The experiment in a line: Antitubercular activity against Mycobacterium tuberculosis H37Rv ATCC 27294 assessed as reduction in microbial growth incubated for 6 days under aerobic condition by microplate Alamar Blue assay. The class given is functional. The settings on record: H37Rv ATCC 27294, 144 h, time 6 day. In general terms: The colour change of resazurin is a common sign of viable cells or microbes.

For data set [2], the system named is Mycolicibacterium smegmatis. The experiment in a line: Antitubercular activity against Mycobacterium smegmatis mc2 155 assessed as reduction in microbial growth incubated for […] by CLSI based broth microdilution method. Format: functional. On the technique in general: Dilution methods test growth across graded concentrations, often in twofold steps.
For data set [3], the system named is Mycobacterium tuberculosis. The experiment in a line: Antitubercular activity against Mycobacterium tuberculosis H37Rv ATCC 27294 assessed as reduction in microbial growth incubated for 6 days under anaerobic condition by microplate Alamar Blue assay. The settings on record: H37Rv ATCC 27294, 144 h, time 6 day. The class given is functional.
Data set [4] concerns Mycobacterium tuberculosis. The data set is described as follows: Antitubercular activity against Mycobacterium tuberculosis H37Rv ATCC 27294 assessed as reduction in microbial growth incubated for 6 days by microplate Alamar Blue assay. Format: functional. The note with it: H37Rv ATCC 27294, 144 h, time 6 day.
Data set [5] relates to Staphylococcus aureus. The data set is described as follows: Antibacterial activity against methicillin-resistant Staphylococcus aureus ATCC 43300 assessed as reduction in microbial growth incubated for 20 hrs by CLSI based broth microdilution method. Format: functional.
Data set [6] has as its system Mycobacterium tuberculosis. The experiment in a line: Antitubercular activity against Mycobacterium tuberculosis H37Rv ATCC 27294 infected in BALB/c mouse assessed as log reduction in lung at 160 mg/kg measured after 4 weeks. Format: functional.
A short description of data set [7]: Cytotoxicity against human Hep3B cells assessed as reduction in cell viability incubated for 48 hrs by sulforhodamine B assay. The class given is toxicity, cell-based, Hep 3B2.
Data set [8] concerns Mycobacterium tuberculosis. The data set is described as follows: Antitubercular activity against Mycobacterium tuberculosis H37Rv ATCC 27294 infected in BALB/c mouse assessed as reduction in bacterial count at 80 mg/kg measured after 4 weeks relative to control. The class given is functional. Further details: scale not given: the % may be the effect or the level left.
Data set [9] deals with Mycobacterium tuberculosis. The data set is described as follows: Antitubercular activity against Mycobacterium tuberculosis H37Rv ATCC 27294 infected in BALB/c mouse assessed as reduction in bacterial count measured after 4 weeks. The class given is functional, organism-based. The settings on record: dose 160-640 mg/kg.
The test system of data set [10] is Staphylococcus aureus. The data set is described as follows: Antibacterial activity against Staphylococcus aureus ATCC 6538P assessed as reduction in microbial growth incubated for 20 hrs by CLSI based broth microdilution method. The class given is functional.
The next data set relates to Escherichia coli. The experiment in a line: Antibacterial activity against Escherichia coli ATCC 25922 assessed as reduction in microbial growth incubated for 20 hrs by CLSI based broth microdilution method. Format: functional.
The nature of data set [11]: Cytotoxicity against human HGC-27 cells assessed as reduction in cell viability incubated for 48 hrs by sulforhodamine B assay. The class given is toxicity, cell-based. Background: In SRB staining, fixed cells bind dye roughly in proportion to their protein.
Data set [12] relates to Staphylococcus aureus. The data set is described as follows: Antibacterial activity against Staphylococcus aureus ATCC 25923 assessed as reduction in microbial growth incubated for 20 hrs by CLSI based broth microdilution method. The class given is functional.
In data set [13] the test system is Mycobacterium tuberculosis. The data set is described as follows: Bactericidal activity against Mycobacterium tuberculosis H37Rv ATCC 27294 expressing pFCA-luxAB assessed as reduction in bacterial count at 16 times MIC preincubated for 10 days under hypoxic condition followed by aerobic condition for 28 hrs by LORA. The class given is functional, organism-based. The settings on record: time 268.0 hrs.

In data set [14] the test system is Staphylococcus aureus. The experiment in a line: Antibacterial activity against methicillin-resistant Staphylococcus aureus ATCC 6538 assessed as reduction in microbial growth incubated for 20 hrs by CLSI based broth microdilution method. Format: functional.
Data set [15] deals with Enterococcus faecalis. The experiment in a line: Antibacterial activity against Enterococcus faecalis ATCC 29212 assessed as reduction in microbial growth incubated for 20 hrs by CLSI based broth microdilution method. The class given is functional.
A further data set concerns Bacillus subtilis. The experiment in a line: Antibacterial activity against Bacillus subtilis ATCC 9372 assessed as reduction in microbial growth incubated for 20 hrs by CLSI based broth microdilution method. The class given is functional.
The test system of data set [16] is Mycobacterium tuberculosis. The experiment in a line: Antitubercular activity against Mycobacterium tuberculosis H37Rv ATCC 27294 infected in BALB/c mouse assessed as reduction in bacterial count at 10 to 40 mg/kg measured after 4 weeks. The note with it: dose 10-40 mg/kg. Format: functional, organism-based.
Data set [17] concerns Enterococcus faecalis. The data set is described as follows: Antibacterial activity against vancomycin-resistant Enterococcus faecalis ATCC 51299 assessed as reduction in microbial growth incubated for 20 hrs by CLSI based broth microdilution method. Format: functional.
Data set [18] concerns Mycobacterium tuberculosis. The data set is described as follows: Bactericidal activity against Mycobacterium tuberculosis H37Rv ATCC 27294 assessed as reduction in bacterial count at 16 time MIC by time kill assay. Format: functional, organism-based. The settings on record: time 2-10 day, TDE = time-dependent effect.
Data set [19] is described as follows: Cytotoxicity against human DLD-1 cells assessed as reduction in cell viability incubated for 48 hrs by sulforhodamine B assay. The class given is toxicity, cell-based.
Data set [20] in a line: Cytotoxicity against human HepG2 cells assessed as reduction in cell viability incubated for 48 hrs by sulforhodamine B assay. Format: toxicity, cell-based.
In data set [21] the test system is Mycobacterium tuberculosis. The data set is described as follows: Antitubercular activity against Mycobacterium tuberculosis H37Rv ATCC 27294 infected in BALB/c mouse chronic model assessed as log reduction in lung at 320 mg/kg drug administered twice daily after 28 days post infection and measured after 4 weeks. The class given is functional.
Data set [22] relates to Mycobacterium tuberculosis. The data set is described as follows: Antitubercular activity against Mycobacterium tuberculosis H37Rv ATCC 27294 infected in BALB/c mouse chronic model assessed as log reduction in lung at 10 mg/kg drug administered after 28 days post infection and measured after 4 weeks. Format: functional.
Data set [23] concerns Mycobacterium tuberculosis. The experiment in a line: Antitubercular activity against Mycobacterium tuberculosis H37Rv ATCC 27294 infected in BALB/c mouse assessed as reduction in bacterial count in lung at 10 mg/kg measured after 4 weeks. Format: functional, organism-based.
The subject of data set [24] is Mycobacterium tuberculosis. The experiment in a line: Antitubercular activity against Mycobacterium tuberculosis H37Rv ATCC 27294 infected in BALB/c mouse assessed as log reduction in lung at 10 mg/kg measured after 4 weeks. The class given is functional.

For orientation: MIC means the least concentration at which growth counts as inhibited. For the compound `CC1=C[C@H]2C[C@@H](C)CC[C@@H]2[C@@](C)(C(=O)C2=C(O)[C@H](CO)N(C)C2=O)[C@H]1/C=C/C=C/C=C/C[C@@H](C)O`, the MIC in data set [1] is 1 µg/mL; in data set [2] it was over 64 µg/mL; in [3] it was over 64 µg/mL.

As for `C/C=C/C=C/[C@H]1C(C)=C[C@H]2C[C@@H](C)CC[C@@H]2[C@@]1(C)/C(O)=C1/C(=O)[C@@H](CO)N(C)C1=O`, in data set [4], the MIC was determined as 16 µg/mL.

One may read the IC50 as the concentration that gives 50% inhibition. On to `CC1=C[C@H]2C[C@@H](C)CC[C@]2(C)[C@@](C)(C(=O)C2=C(O)[C@@H](CO)N(C)C2=O)[C@H]1/C=C/C=C/C=C/C[C@@H](C)O`, for which the minimum inhibitory concentration (MIC) was 4 µg/mL in the data set on Staphylococcus aureus [5]; 8 µg/mL in the data set with Staphylococcus aureus [10]; over 64 µg/mL in the data set with Escherichia coli; 8 µg/mL in the data set with Staphylococcus aureus [12]; 4 µg/mL in the data set on Staphylococcus aureus [14]; 4 µg/mL in the data set on Enterococcus faecalis [15]. In addition, the minimal inhibitory concentration (MIC) was 0.016 µg/mL in data set [1]; 0.25 µg/mL in [2]; over 64 µg/mL in data set [3]; 8 µg/mL in the data set on Bacillus subtilis; 8 µg/mL with Enterococcus faecalis [17]. The Activity in data set [6] was 2 log10CFU; in data set [8] it was 100%; in data set [9], “Dose-Dependent Effect”; in data set [16], “Dose-Dependent Effect”; in data set [18] it was “Tde”; in [21] it was 2.3 log10CFU. The IC50 at 48 h in data set [7], in data set [11], in data set [19] and in data set [20] was over 64 µg/mL each time. Also, the result in data set [13] was inactive.

With `CC1=C[C@H]2C[C@@H](C)CC[C@]2(C)[C@@](C)(C(=O)C2=C(O)[C@@H](CO)NC2=O)[C@H]1/C=C/C=C/C=C/C[C@@H](C)O`, the MIC in [1] is 0.5 µg/mL; in [2], over 64 µg/mL; in data set [3] it was over 64 µg/mL.

On to `C/C=C/[C@@H]1C=C[C@@H]2C[C@H](C)CC[C@H]2[C@]1(C)/C(O)=C1/C(=O)[C@H](CO)N(C)C1=O`, for which the MIC in data set [4] was over 64 µg/mL.

As to `CO[C@H]1/C=C/O[C@@]2(C)Oc3c(C)c(O)c4c(O)c(c(/C=N/N5CCN(C)CC5)c(O)c4c3C2=O)NC(=O)/C(C)=C\C=C\[C@H](C)[C@H](O)[C@@H](C)[C@@H](O)[C@@H](C)[C@H](OC(C)=O)[C@@H]1C` [RIFAMPIN], the MIC in [1] was 0.25 µg/mL; in [2] it was 16 µg/mL; in data set [3], over 64 µg/mL; in data set [4], 0.25 µg/mL. Besides, the Activity in [22] worked out at 3 log10CFU. The result in [23] was inactive.

As to `CC1(C)S[C@@H]2[C@H](NC(=O)[C@H](N)c3ccccc3)C(=O)N2[C@H]1C(=O)O` [AMPICILLIN], the MIC with Staphylococcus aureus [5] was over 64 µg/mL; in the data set on Staphylococcus aureus [10], over 64 µg/mL; with Staphylococcus aureus [12] it was 4 µg/mL; in the data set on Staphylococcus aureus [14] it was 2 µg/mL; with Enterococcus faecalis [15], 2 µg/mL; in the data set on Bacillus subtilis it was 4 µg/mL. Moreover, the minimum inhibitory concentration (MIC) with Enterococcus faecalis [17] amounted to 4 µg/mL.

`CC(=O)O[C@H]1C(=O)[C@@]2(C)[C@H]([C@H](OC(=O)c3ccccc3)[C@]3(O)C[C@H](OC(=O)[C@H](O)[C@@H](NC(=O)c4ccccc4)c4ccccc4)C(C)=C1C3(C)C)[C@]1(OC(C)=O)CO[C@@H]1C[C@@H]2O` [PACLITAXEL]: the IC50 at 48 h worked out at 0.008 µg/mL (≈ 0.00937 µM) in [11], 0.031 µg/mL (≈ 0.0363 µM) in data set [19] and 0.016 µg/mL (≈ 0.0187 µM) in [20].

As to `CC1=C[C@@H]2C[C@@H](C)CC[C@]2(C)[C@@](C)(C(=O)C2=C(O)[C@@H](CO)NC2=O)[C@H]1/C=C/C=C/C=C/C[C@@H](C)O`, the minimal inhibitory concentration (MIC) in data set [1] is 2 µg/mL; in data set [2], over 64 µg/mL; in [3] it was over 64 µg/mL.

On to `NNC(=O)c1ccncc1` [ISONIAZID], for which the Activity in data set [24] stood at 2.5 log10CFU; in data set [22], 3 log10CFU.
